Reference: the supplement of paper PMC11451515

Experiments:
P12-Ichikawa [1] = assay: cell viability relative to DMSO control; higher = less cytotoxic; conditions: HPLM + 10% dialyzed FBS, 48 h
Method in brief: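 Library compounds in DMSO were pin-dosed into 1536-well plates (5 μl) holding NOMO1 or SEM (500 cells/well) or P12-Ichikawa (1000 cells/well) leukemia cells, across an 11-point threefold series of 47 μM to 0.79 nM. Each cell line had been adapted for at least four passages in each medium. CellTiter-Glo One luminescence was read after 48 h at 37°C. Viability is the per-plate percentage relative to DMSO wells, with cell-free wells as background.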

NOMO1 = assay: AUC of viability dose-response curve (% viability x log10 dose units); higher = less sensitive; conditions: 48 h
Method in brief: (§1)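 Area under the curve was integrated by trapezoidal rule from a log-logistic fit of normalised viability, with curves exceeding full viability scaled and quality-control failures removed. The fit had four parameters over log10 doses. Viability came from CellTiter-Glo One luminescence, normalised per plate to DMSO and cell-free wells, after leukemia cells adapted to each medium (500 or 1000 cells/well, 1536-well plates) were exposed to library compounds in DMSO for 48 h at 37°C. The 11 threefold doses ran from 47 μM to 0.79 nM.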

P12-Ichikawa [2] = assay: as above; conditions: 48 h
Method in brief: as §1

SEM cells = assay: as above; conditions: 48 h
Method in brief: as §1

COc1cc2nc(N3CCN(C(=O)C4CCCO4)CC3)nc(N)c2cc1OC (stereo not given)
Conditions	AUC of viability dose-response curve	cell viability [%]
NOMO1, HPLM + 10% dialyzed FBS	473	–
NOMO1, RPMI 5 mM glucose + 10% FBS	471	–
NOMO1, RPMI 5 mM glucose + 10% dialyzed FBS	458	–
P12-Ichikawa [1], 0.000781 µM	–	112
P12-Ichikawa [1], 0.00234 µM	–	123
P12-Ichikawa [1], 0.00702 µM	–	123
P12-Ichikawa [1], 0.0211 µM	–	127
P12-Ichikawa [1], 0.0632 µM	–	130
P12-Ichikawa [1], 0.19 µM	–	130
P12-Ichikawa [1], 0.569 µM	–	131
P12-Ichikawa [1], 1.71 µM	–	124
P12-Ichikawa [1], 5.12 µM	–	127
P12-Ichikawa [1], 15.4 µM	–	139
P12-Ichikawa [1], 46.1 µM	–	136
P12-Ichikawa [2], HPLM + 10% dialyzed FBS	447	–
P12-Ichikawa [2], RPMI 5 mM glucose + 10% FBS	470	–
P12-Ichikawa [2], RPMI 5 mM glucose + 10% dialyzed FBS	445	–
SEM cells, HPLM + 10% dialyzed FBS	430	–
SEM cells, RPMI 5 mM glucose + 10% FBS	460	–
SEM cells, RPMI 5 mM glucose + 10% dialyzed FBS	418	–
